# Tested on: estrogen responsive promoter (four repeats of estrogen response element, ERE) in MCF-7/S0.5 reporter cells
# Assay: Estrogen-responsive NanoLuc luciferase reporter assay in transfected MCF-7/S0.5 cells, luminescence in culture medium without cell lysis
# Assay type: cell-based, human
# Settings: MCF-7/S0.5 reporter cells exposed for 24 h to 0.03 to 109 ng/L
# Procedure: MCF-7/S0.5 human breast cancer cells (Sigma-Aldrich, catalogue no. SCC100) were cultured in medium supplemented with 1% charcoal-stripped fetal bovine serum (FBS) for 48 hours prior to seeding. The cells were then seeded in medium supplemented with 1% FBS and incubated for 48 hours. […]
# The luminescence was measured in the cell culture medium by a Spark® Multimode Microplate Reader (Tecan) from three experimental groups: a) negative control with only cell culture medium but no cells, b) cell culture medium and non-transfected cells, and c) cell cultured medium and cells transfected with the reporter plasmid mentioned above (“reporter cells”).
# The MCF-7/S0.5 cells transfected with the reporter plasmid where the expression of NanoLuc® luciferase with an N-terminal secretion signal was under the regulation of an estrogen responsive promoter produced in Example 1 were exposed for 24 h to increasing concentrations of 17β-estradiol, ranging from 0.03 to 109 ng/L. The luminescence was then analyzed in the cell culture medium, without cell lysis.
smiles,measurement,setting,value
"C[C@]12CC[C@@H]3c4ccc(O)cc4CC[C@H]3[C@@H]1CC[C@@H]2O [E2, 17β-estradiol]",amount of NanoLuc luciferase secreted into the cell culture medium,FIG. 6,increasing with increasing concentration of E2
same,effect concentration 20% (EC20),luminescence of secreted NanoLuc luciferase in cell culture medium,0.00019 ng/mL

# — patent US20260219194A1, “BIOSENSOR FOR WATER ANALYSIS” (BIOCELL ANALYTICA UPPSALA AB, priority 2023, published 2026)
